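Following 48 hours of exposure in 96-well plates, responses at five concentrations were used to interpolate endpoints linearly. GI50: concentration for 50% inhibition of growth.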 Calls of active or inactive are those of the source. No stated cut-off is given here; in the data, active = GI50 up to about 1.1 µM and inactive = higher.
Tests used:
Experiment in all cases: DTP human tumour cell line panel, 48 h
[1] = test system: 786-0
[2] = test system: COLO 205
[3] = test system: HCT-116
[4] = test system: HCT-15
[5] = test system: KM-20L2
[6] = test system: KM12
[7] = test system: M14
[8] = test system: MOLT-4
[9] = test system: NCI-H23
[10] = test system: NCI-H522
[11] = test system: OVCAR-5
[12] = test system: OVCAR-8
[13] = test system: SN12C
[14] = test system: SNB-19
[15] = test system: U-251
[16] = test system: UACC-257
[17] = test system: UO-31
[18] = test system: RXF 393

Structure (SMILES) | GI50 [1] | GI50 [2] | GI50 [3] | GI50 [4] [µM] | GI50 [5] | GI50 [6] | GI50 [7] | GI50 [8] | GI50 [9] | GI50 [10] | GI50 [11] | GI50 [12] | GI50 [13] | GI50 [14] | GI50 [15] | GI50 [16] | GI50 [17] | GI50 [18]
CCN(CC)CCNc1ccc2nnn3c4ccc(C)cc4c(=O)c1c23 | 5.66 µM (inactive) | 5.87 µM (inactive) | 3.78 µM (inactive) | 9.62 | 6.32 µM (inactive) | 4.56 µM (inactive) | 12.8 µM (inactive) | 3.07 µM (inactive) | 11.7 µM (inactive) | 7.67 µM (inactive) | 6.71 µM (inactive) | 5.22 µM (inactive) | 8 µM (inactive) | 12.7 µM (inactive) | 11.5 µM (inactive) | 13.2 µM (inactive) | 10.2 µM (inactive) | 
O=S(=O)(c1ccccc1)C1CN2OC1(S(=O)(=O)c1ccccc1)CC21CCCCC1 (configuration not stated) | > 100 µM (inactive) | > 100 µM (inactive) | > 100 µM (inactive) | > 100 | > 100 µM (inactive) | > 100 µM (inactive) | > 100 µM (inactive) | 40.7 µM (inactive) | > 100 µM (inactive) | 51.5 µM (inactive) | > 100 µM (inactive) | > 100 µM (inactive) | > 100 µM (inactive) | > 100 µM (inactive) | > 100 µM (inactive) | > 100 µM (inactive) | 42.9 µM (inactive) | 77.1 µM (inactive)
COc1ccc2c(c1)C1C(CO2)C(c2ccccc2)=NN1c1ccccc1 (configuration not stated) | > 100 µM (inactive) | > 100 µM (inactive) | > 100 µM (inactive) |  | > 100 µM (inactive) | > 100 µM (inactive) |  | 94.8 µM (inactive) | > 100 µM (inactive) | > 100 µM (inactive) | > 100 µM (inactive) | > 100 µM (inactive) |  |  | > 100 µM (inactive) | > 100 µM (inactive) | > 100 µM (inactive) | 35.6 µM (inactive)
O=C1C2C(C(=O)N1c1ccccc1)C1(Br)c3ccccc3C2(Br)C2C(=O)N(c3ccccc3)C(=O)C21 (configuration not stated) | 20.5 µM (inactive) | > 31.6 µM (inactive) | 28.3 µM (inactive) | 23.8 | 24.5 µM (inactive) | 16.6 µM (inactive) | > 31.6 µM (inactive) | 20.6 µM (inactive) | 17.6 µM (inactive) | > 10 µM (inactive) | > 31.6 µM (inactive) | > 100 µM (inactive) | > 31.6 µM (inactive) | > 31.6 µM (inactive) | > 31.6 µM (inactive) | > 31.6 µM (inactive) | 17.5 µM (inactive) | 11 µM (inactive)
